In PubChem BioAssay (NCI):
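GI50: concentration for 50% inhibition of growth. TGI marks complete inhibition of growth.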

Columns and labels:
Test in all cases: inhibition of tumour cell growth, NCI panel, 384-well format
786-0 renal = system: 786-0 renal
A498 renal = system: A498 renal
A549 NSCLC = system: A549 NSCLC
ACHN renal = system: ACHN renal
BT-549 breast = system: BT-549 breast
CAKI-1 renal = system: CAKI-1 renal
CCRF-CEM leukemia = system: CCRF-CEM leukemia
COLO 205 colon = system: COLO 205 colon
DU-145 prostate = system: DU-145 prostate
EKVX NSCLC = system: EKVX NSCLC
HCC-2998 colon = system: HCC-2998 colon
HCT-15 colon = system: HCT-15 colon
HL-60(TB) leukemia = system: HL-60(TB) leukemia
HOP-62 NSCLC = system: HOP-62 NSCLC
HOP-92 NSCLC = system: HOP-92 NSCLC
HS 578T breast = system: HS 578T breast
HT29 colon = system: HT29 colon
IGROV1 ovarian = system: IGROV1 ovarian
K-562 leukemia = system: K-562 leukemia
KM12 colon = system: KM12 colon
LOX IMVI melanoma = system: LOX IMVI melanoma
M14 melanoma = system: M14 melanoma
MALME-3M melanoma = system: MALME-3M melanoma
MCF7 breast = system: MCF7 breast
MDA-MB-231 breast = system: MDA-MB-231 breast
MDA-MB-435 melanoma = system: MDA-MB-435 melanoma
MDA-MB-468 breast = system: MDA-MB-468 breast
MOLT-4 leukemia = system: MOLT-4 leukemia
NCI-H226 lung = system: NCI-H226 lung
NCI-H23 lung = system: NCI-H23 lung
NCI-H322M lung = system: NCI-H322M lung
NCI-H460 NSCLC = system: NCI-H460 NSCLC
NCI-H522 lung = system: NCI-H522 lung
NCI/ADR-RES ovarian = system: NCI/ADR-RES ovarian
OVCAR-3 ovarian = system: OVCAR-3 ovarian
OVCAR-4 ovarian = system: OVCAR-4 ovarian
OVCAR-5 ovarian = system: OVCAR-5 ovarian
OVCAR-8 ovarian = system: OVCAR-8 ovarian
PC-3 prostate = system: PC-3 prostate
RPMI-8226 leukemia = system: RPMI-8226 leukemia
RXF 393 renal = system: RXF 393 renal
SF-268 CNS = system: SF-268 CNS
SF-295 CNS = system: SF-295 CNS
SF-539 CNS = system: SF-539 CNS
SK-MEL-28 melanoma = system: SK-MEL-28 melanoma
SK-MEL-5 melanoma = system: SK-MEL-5 melanoma
SK-OV-3 ovarian = system: SK-OV-3 ovarian
SN12C renal = system: SN12C renal
SNB-19 CNS = system: SNB-19 CNS
SNB-75 CNS = system: SNB-75 CNS
SR leukemia = system: SR leukemia
SW-620 colon = system: SW-620 colon
T-47D breast = system: T-47D breast
TK-10 renal = system: TK-10 renal
U251 glioblastoma = system: U251 glioblastoma
UACC-257 melanoma = system: UACC-257 melanoma
UACC-62 melanoma = system: UACC-62 melanoma
UO-31 renal = system: UO-31 renal

Cc1cc(Nc2cc(CN3CCOCC3)c3nc(C)c(Cc4ccc(Cl)cc4F)n3n2)n[nH]1 was tested, and the GI50 ([…]-0 renal) was 688 nM, the TGI (786-0 renal) was 2320 nM and the GI50 (A498 renal) was 724 nM. The TGI (A498 renal) was 3290 nM, the GI50 (A549 NSCLC) was 772 nM and the TGI (A549 NSCLC) was 3350 nM. It also gave a GI50 (ACHN renal) of 1270 nM, a TGI (ACHN renal) of 7950 nM and a GI50 (BT-549 breast) of 842 nM. It also gave a TGI (BT-549 breast) of 2780 nM, a GI50 (CAKI-1 renal) of 1030 nM and a TGI (CAKI-1 renal) of 2240 nM. For the same compound, the GI50 (CCRF-CEM leukemia) was 276 nM, the TGI (CCRF-CEM leukemia) was 604 nM and the GI50 (COLO 205 colon) was 418 nM. It also gave a TGI (COLO 205 colon) of 1660 nM, a GI50 (DU-145 prostate) of 1020 nM and a TGI (DU-145 prostate) of 3000 nM. For the same compound, the GI50 (EKVX NSCLC) was 1580 nM, the TGI (EKVX NSCLC) was 8090 nM and the GI50 (HCC-2998 colon) was 1130 nM. It also gave a TGI (HCC-2998 colon) of 2390 nM, a GI50 (HCT-15 colon) of 1110 nM and a TGI (HCT-15 colon) of 12000 nM. For the same compound, the GI50 (HL-60(TB) leukemia) was 302 nM, the TGI (HL-60(TB) leukemia) was 670 nM and the GI50 (HOP-62 NSCLC) was 1050 nM. The TGI (HOP-62 NSCLC) was 2950 nM, the GI50 (HOP-92 NSCLC) was 554 nM and the TGI (HOP-92 NSCLC) was 2560 nM. For the same compound, the GI50 (HS 578T breast) was 586 nM, the TGI (HS 578T breast) was 1810 nM and the GI50 (HT29 colon) was 1730 nM. It also gave a TGI (HT29 colon) of 16100 nM, a GI50 (IGROV1 ovarian) of 1690 nM and a TGI (IGROV1 ovarian) of 3360 nM. The GI50 (K-562 leukemia) was 380 nM, the TGI (K-562 leukemia) was 1360 nM and the GI50 (KM12 colon) was 37.8 nM. The TGI (KM12 colon) was 1470 nM, the GI50 (LOX IMVI melanoma) was 868 nM and the TGI (LOX IMVI melanoma) was 2130 nM. It also gave a GI50 (M14 melanoma) of 1740 nM, a TGI (M14 melanoma) of 11800 nM and a GI50 (MALME-3M melanoma) of 1490 nM. The TGI (MALME-3M melanoma) was 9790 nM, the GI50 (MCF7 breast) was 894 nM and the TGI (MCF7 breast) was 6570 nM. It also gave a GI50 (MDA-MB-231 breast) of 1070 nM, a TGI (MDA-MB-231 breast) of 3020 nM and a GI50 (MDA-MB-435 melanoma) of 563 nM. It also gave a TGI (MDA-MB-435 melanoma) of 15100 nM, a GI50 (MDA-MB-468 breast) of 271 nM and a TGI (MDA-MB-468 breast) of 535 nM. The GI50 (MOLT-4 leukemia) was 162 nM, the TGI (MOLT-4 leukemia) was 336 nM and the GI50 (NCI-H226 lung) was 324 nM. The TGI (NCI-H226 lung) was 2080 nM, the GI50 (NCI-H23 lung) was 578 nM and the TGI (NCI-H23 lung) was 2570 nM. The GI50 (NCI-H322M lung) was 1710 nM, the TGI (NCI-H322M lung) was 4680 nM and the GI50 (NCI-H460 NSCLC) was 356 nM. The TGI (NCI-H460 NSCLC) was 1030 nM, the GI50 (NCI-H522 lung) was 366 nM and the TGI (NCI-H522 lung) was 1110 nM. The GI50 (NCI/ADR-RES ovarian) was 2520 nM, the TGI (NCI/ADR-RES ovarian) was 7880 nM and the GI50 (OVCAR-3 ovarian) was 825 nM. It also gave a TGI (OVCAR-3 ovarian) of 2960 nM, a GI50 (OVCAR-4 ovarian) of 874 nM and a TGI (OVCAR-4 ovarian) of 5880 nM. It also gave a GI50 (OVCAR-5 ovarian) of 1060 nM, a TGI (OVCAR-5 ovarian) of 3580 nM and a GI50 (OVCAR-8 ovarian) of 1370 nM. For the same compound, the TGI (OVCAR-8 ovarian) was 3650 nM, the GI50 (PC-3 prostate) was 2200 nM and the TGI (PC-3 prostate) was 13700 nM. It also gave a GI50 (RPMI-8226 leukemia) of 205 nM, a TGI (RPMI-8226 leukemia) of 516 nM and a GI50 (RXF 393 renal) of 612 nM. For the same compound, the TGI (RXF 393 renal) was 2360 nM, the GI50 (SF-268 CNS) was 439 nM and the TGI (SF-268 CNS) was 1620 nM. It also gave a GI50 (SF-295 CNS) of 1210 nM, a TGI (SF-295 CNS) of 2700 nM and a GI50 (SF-539 CNS) of 1080 nM. For the same compound, the TGI (SF-539 CNS) was 2450 nM, the GI50 (SK-MEL-28 melanoma) was 2390 nM and the TGI (SK-MEL-28 melanoma) was 15000 nM. For the same compound, the GI50 (SK-MEL-5 melanoma) was 693 nM, the TGI (SK-MEL-5 melanoma) was 5820 nM and the GI50 (SK-OV-3 ovarian) was 1230 nM. For the same compound, the TGI (SK-OV-3 ovarian) was 3380 nM, the GI50 (SN12C renal) was 730 nM and the TGI (SN12C renal) was 9250 nM. For the same compound, the GI50 (SNB-19 CNS) was 1850 nM, the TGI (SNB-19 CNS) was 4250 nM and the GI50 (SNB-75 CNS) was 812 nM. It also gave a TGI (SNB-75 CNS) of 2350 nM, a GI50 (SR leukemia) of 166 nM and a TGI (SR leukemia) of 312 nM. For the same compound, the GI50 (SW-620 colon) was 671 nM, the TGI (SW-620 colon) was 8260 nM and the GI50 (T-47D breast) was 855 nM. For the same compound, the TGI (T-47D breast) was 14000 nM, the GI50 (TK-10 renal) was 1950 nM and the TGI (TK-10 renal) was 4720 nM. It also gave a GI50 (U251 glioblastoma) of 1200 nM, a TGI (U251 glioblastoma) of 2750 nM and a GI50 (UACC-257 melanoma) of 5450 nM. It also gave a TGI (UACC-257 melanoma) of 20600 nM, a GI50 (UACC-62 melanoma) of 1230 nM and a TGI (UACC-62 melanoma) of 2990 nM. It also gave a GI50 (UO-31 renal) of 1440 nM and a TGI (UO-31 renal) of 2880 nM.
